According to patent US20070042949A1, “Pharmaceutical compositions comprising an epitope of platelet gpiiia protein” (priority 2003, published 2007):

Tested on: Peripheral blood mononuclear cells (PBMC) from HPA-1b1b women
Test: T-cell proliferation assay (3H-thymidine incorporation) of PBMC stimulated with HPA-1a/1b 15-mer peptides, HPA-1b1b women
Format: cell-based, human
Conditions: peptide 20 μg/mL; for immunodominance in stimulating specific T-cell responses in vitro: HPA-1a alloimmunised HPA-1b1b women; for strength of PBMC proliferative response (in words): HPA-1b1b women
Procedure: The cells were stimulated with a panel of 15-mer peptides corresponding to the sequences of the HPA-1a and 1b alloantigens containing Leu33 and Pro33 respectively (see FIG. 1). Two categories of control donors were utilised; 1 HPA-1b1b unimmunised donor and 11 HPA-1a randomly selected female donors. Testing of both patients and controls was carried out in cell culture conditions designed to favour proliferation by previously activated T-cells, rather than primary responses.
The human platelet membrane GPIIIa amino acid sequence reported by Frachet et al Mol. Biol. Rep. 1990, vol 14, 27-33 (genebank accession no: M35999) was used as the basis for production of the HPA-1a and HPA-1b GPIIIa synthetic peptides. Two panels of 15-mer peptides were synthesised corresponding to the sequences of the HPA-1 polymorphic region, with either the Leu-33 or Pro-33 at each possible position (see FIG. 1). One set of the 15-mer peptides contained the leucine polymorphism and the other set of 15 contained the proline polymorphism. To ensure purity each panel was synthesized by f-moc chemistry. The peptides were reconstituted to a concentration of 2.0 mg/ml and used for stimulation of PBMC at 20 μg/mL in culture.
Mononuclear cells were recovered from samples of peripheral blood of all patients and control donors by density gradient centrifugation technique (Lymphoprep; Nycomed, Denmark) according to the manufacturer's instructions. The cells were then manually counted by hemocytometer.
Peripheral blood mononuclear cells were cultured at a concentration of 1.25×10^6 cells per mL in Alpha Modification of Eagle's Medium (Sigma Diagnostic, St. Louis, Mo., USA.) supplemented with 4 mmol/l L-glutamine (Gibco, Paisley, UK), 100 μg/ml streptomycin sulphate (Sigma Diagnostic, St. Louis, Mo., USA), 100 u/mL sodium benzylpenicillin G (Sigma Diagnostic, St. Louis, Mo., USA), 20 mmol/L HEPES, PH 7.2 (Sigma Diagnostic, St. Louis, Mo., USA) and 5% autologous serum or AB serum. Twelve microlitres of synthetic HPA-1a/1b peptides and control antigens (PPD, KLH and ConA) were each added to appropriate wells of the microtitre plates before the cell culture suspension was layered. The culture plates were incubated at 37° C. in a humidified atmosphere of 95% air and 5% CO2 for 5 days. T-cell proliferation in cultures was estimated from the incorporation of ^3H-thymidine in triplicate 100 μL samples withdrawn from the plates 5 days after stimulation. T-cell proliferation results were presented either as the mean counts per minute (CPM)±SD of the triplicate samples or as a stimulation index (SI) expressing the ratio of mean CPM in stimulated versus unstimulated control cultures. A SI >3 was interpreted as representing a positive response.

“SEQ ID No:2: 15-mer synthetic HPA-1a (Leu-33) GPIIIa peptide, polymorphism in the C-terminal part of the peptide (SPMCAWCSDEALPLG; listed as Homo sapiens)” was tested, and the “immunodominance in stimulating specific T-cell responses in vitro” value (“immunodominance” below) was “immunodominant”.

“SEQ ID No:7: 15-mer synthetic HPA-1a (Leu-33) GPIIIa peptide, polymorphism in the C-terminal part of the peptide (WCSDEALPLGSPRCD; listed as Homo sapiens)” was tested, and the “immunodominance” value was “immunodominant” and the “strength of PBMC proliferative response (in words)” value (5 days) was “strong responses in particular individuals”.

“SEQ ID No:1: 15-mer synthetic HPA-1a (Leu-33) GPIIIa peptide, polymorphism in the C-terminal part of the peptide (VSPMCAWCSDEALPL; listed as Homo sapiens)” was tested, and the “immunodominance” value was “immunodominant” and the “percentage of HPA-1a alloimmunised HPA-1b1b women in whom the peptide elicited proliferation of T-cells” value (5 days, SI >3 = positive response, 14 alloimmunised women) was “approximately 50%”.

In the case of “SEQ ID No:4: 15-mer synthetic HPA-1a (Leu-33) GPIIIa peptide, polymorphism in the C-terminal part of the peptide (MCAWCSDEALPLGSP; listed as Homo sapiens)”, the “immunodominance” value is reported as “immunodominant”.

In the case of “SEQ ID No:3: 15-mer synthetic HPA-1a (Leu-33) GPIIIa peptide, polymorphism in the C-terminal part of the peptide (PMCAWCSDEALPLGS; listed as Homo sapiens)”, the “immunodominance” value is reported as “immunodominant”.

For “SEQ ID No:5: 15-mer synthetic HPA-1a (Leu-33) GPIIIa peptide, polymorphism in the C-terminal part of the peptide (CAWCSDEALPLGSPR; listed as Homo sapiens)”, the “immunodominance” value was “immunodominant”.

In the case of “SEQ ID No:6: 15-mer synthetic HPA-1a (Leu-33) GPIIIa peptide, polymorphism in the C-terminal part of the peptide (AWCSDEALPLGSPRC; listed as Homo sapiens)”, the “immunodominance” value is reported as “immunodominant” and the “strength of PBMC proliferative response (in words)” value (5 days) is reported as “strong responses in particular individuals”.
